Targets include CDK5 (Homo sapiens, UniProt Q00535); CSNK2A2 (Homo sapiens, UniProt P19784); EGFR(E746-A750del) (Homo sapiens, UniProt P00533, DEL746-750); EGFR(G719S) (Homo sapiens, UniProt P00533, G719S); EGFR(L858R) (Homo sapiens, UniProt P00533, L858R); GRK2 (Homo sapiens, UniProt P25098); HIPK3 (Homo sapiens, UniProt Q9H422); MAP3K4 (Homo sapiens, UniProt Q9Y6R4); MARK2 (Homo sapiens, UniProt Q7KZI7); MTOR (Homo sapiens, UniProt P42345); PHKG1 (Homo sapiens, UniProt Q16816); PRKCE (Homo sapiens, UniProt Q02156); PRKD2 (Homo sapiens, UniProt Q9BZL6); SRPK3 (Homo sapiens, UniProt Q9UPE1).

What all share (test): biochemical
Common to all, as to set-up: DiscoverX kinase panel, active-site competition binding (KINOMEscan type), percent of control at one concentration
Common to all, as to settings: competition binding, percent of control

In another assay the target is T1, AMPK-alpha2 (Homo sapiens, UniProt P54646).
T1 construct: gene PRKAA2

The target in the next assay is T2, IKK-alpha (Homo sapiens, UniProt O15111).
T2 construct: gene CHUK

A further assay deals with T3, NDR2 (Homo sapiens, UniProt Q9Y2H1).
T3 construct: gene STK38L

A further assay has as its target T4, PIP5K2B (Homo sapiens, UniProt P78356).
T4 construct: gene PIP4K2B

The next assay concerns the target T5, PIP5K2C (Homo sapiens, UniProt Q8TBX8).
T5 construct: gene PIP4K2C

Assay [1] has as its target T6, RPS6KA4(Kin.Dom.1-N-terminal) (Homo sapiens, UniProt O75676).
T6 construct: Kin.Dom.1-N-terminal

The target of another assay is T7, SNARK (Homo sapiens, UniProt Q9H093).
T7 construct: gene NUAK2

The text below walks through data of article PMC7206119, “RIP1 inhibition blocks inflammatory diseases but not tumor growth or metastases” (Cell Death and Differentiation, 2019).

Sequence of SRPK3 (Q9UPE1 whole entry): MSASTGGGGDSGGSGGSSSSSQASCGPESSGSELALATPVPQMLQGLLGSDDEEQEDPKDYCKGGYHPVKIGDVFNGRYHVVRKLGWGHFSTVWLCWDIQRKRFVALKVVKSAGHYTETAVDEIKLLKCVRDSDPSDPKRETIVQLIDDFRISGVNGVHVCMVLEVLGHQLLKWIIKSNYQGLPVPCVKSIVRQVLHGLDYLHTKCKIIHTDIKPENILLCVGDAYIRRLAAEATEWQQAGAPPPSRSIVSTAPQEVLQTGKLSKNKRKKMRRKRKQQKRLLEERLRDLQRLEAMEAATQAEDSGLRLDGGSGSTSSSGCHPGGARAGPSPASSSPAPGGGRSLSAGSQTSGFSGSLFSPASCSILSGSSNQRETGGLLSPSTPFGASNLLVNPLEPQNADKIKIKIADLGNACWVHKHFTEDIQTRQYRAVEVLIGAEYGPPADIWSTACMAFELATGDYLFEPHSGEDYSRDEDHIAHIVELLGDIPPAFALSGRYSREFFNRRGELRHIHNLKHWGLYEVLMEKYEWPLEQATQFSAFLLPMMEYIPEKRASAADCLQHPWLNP
T4 sequence (P78356 whole entry): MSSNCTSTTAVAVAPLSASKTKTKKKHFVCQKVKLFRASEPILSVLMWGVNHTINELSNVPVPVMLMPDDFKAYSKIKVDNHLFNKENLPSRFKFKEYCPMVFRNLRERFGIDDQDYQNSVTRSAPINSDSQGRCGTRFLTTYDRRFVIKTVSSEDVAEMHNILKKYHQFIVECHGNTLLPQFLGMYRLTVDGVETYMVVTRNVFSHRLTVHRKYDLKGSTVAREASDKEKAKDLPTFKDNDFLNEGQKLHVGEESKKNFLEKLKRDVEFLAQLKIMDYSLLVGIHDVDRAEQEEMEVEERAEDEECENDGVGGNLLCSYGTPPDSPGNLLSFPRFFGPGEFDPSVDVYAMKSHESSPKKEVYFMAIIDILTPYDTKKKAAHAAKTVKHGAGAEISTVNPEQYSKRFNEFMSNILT
T2 sequence (O15111 whole entry): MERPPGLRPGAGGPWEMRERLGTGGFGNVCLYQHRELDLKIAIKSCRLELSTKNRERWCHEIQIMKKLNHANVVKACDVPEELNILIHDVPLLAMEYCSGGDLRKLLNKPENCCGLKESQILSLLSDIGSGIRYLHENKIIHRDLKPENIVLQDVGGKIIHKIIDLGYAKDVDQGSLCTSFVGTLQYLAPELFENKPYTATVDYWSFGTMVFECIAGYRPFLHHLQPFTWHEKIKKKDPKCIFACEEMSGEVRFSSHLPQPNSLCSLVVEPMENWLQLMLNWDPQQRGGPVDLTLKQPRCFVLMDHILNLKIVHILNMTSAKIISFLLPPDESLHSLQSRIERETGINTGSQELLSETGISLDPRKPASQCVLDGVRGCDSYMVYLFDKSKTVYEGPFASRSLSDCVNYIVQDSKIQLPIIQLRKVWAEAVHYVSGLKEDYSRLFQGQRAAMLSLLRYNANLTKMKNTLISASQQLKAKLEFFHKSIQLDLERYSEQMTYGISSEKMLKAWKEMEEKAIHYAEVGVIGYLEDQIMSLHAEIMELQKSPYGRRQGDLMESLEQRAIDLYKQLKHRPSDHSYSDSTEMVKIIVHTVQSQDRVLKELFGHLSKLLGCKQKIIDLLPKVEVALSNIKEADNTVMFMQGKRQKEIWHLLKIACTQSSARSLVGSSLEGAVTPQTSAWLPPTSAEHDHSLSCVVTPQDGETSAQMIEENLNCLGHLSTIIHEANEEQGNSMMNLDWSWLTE
T1 sequence (P54646 whole entry): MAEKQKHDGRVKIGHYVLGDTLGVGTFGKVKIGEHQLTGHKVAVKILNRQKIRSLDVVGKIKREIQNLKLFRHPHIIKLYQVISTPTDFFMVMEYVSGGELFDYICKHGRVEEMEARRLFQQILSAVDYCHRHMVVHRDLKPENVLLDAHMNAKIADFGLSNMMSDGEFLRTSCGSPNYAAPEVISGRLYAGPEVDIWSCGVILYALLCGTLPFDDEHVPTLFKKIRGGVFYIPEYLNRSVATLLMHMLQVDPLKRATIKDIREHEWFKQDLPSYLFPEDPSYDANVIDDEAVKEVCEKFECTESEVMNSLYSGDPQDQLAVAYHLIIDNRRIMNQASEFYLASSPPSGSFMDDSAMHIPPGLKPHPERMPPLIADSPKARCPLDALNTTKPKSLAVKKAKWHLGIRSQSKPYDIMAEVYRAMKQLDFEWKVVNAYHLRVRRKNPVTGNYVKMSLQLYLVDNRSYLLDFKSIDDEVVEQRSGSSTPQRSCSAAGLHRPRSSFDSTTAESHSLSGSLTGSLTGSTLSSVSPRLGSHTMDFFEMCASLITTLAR
Sequence of MARK2 (Q7KZI7 whole entry): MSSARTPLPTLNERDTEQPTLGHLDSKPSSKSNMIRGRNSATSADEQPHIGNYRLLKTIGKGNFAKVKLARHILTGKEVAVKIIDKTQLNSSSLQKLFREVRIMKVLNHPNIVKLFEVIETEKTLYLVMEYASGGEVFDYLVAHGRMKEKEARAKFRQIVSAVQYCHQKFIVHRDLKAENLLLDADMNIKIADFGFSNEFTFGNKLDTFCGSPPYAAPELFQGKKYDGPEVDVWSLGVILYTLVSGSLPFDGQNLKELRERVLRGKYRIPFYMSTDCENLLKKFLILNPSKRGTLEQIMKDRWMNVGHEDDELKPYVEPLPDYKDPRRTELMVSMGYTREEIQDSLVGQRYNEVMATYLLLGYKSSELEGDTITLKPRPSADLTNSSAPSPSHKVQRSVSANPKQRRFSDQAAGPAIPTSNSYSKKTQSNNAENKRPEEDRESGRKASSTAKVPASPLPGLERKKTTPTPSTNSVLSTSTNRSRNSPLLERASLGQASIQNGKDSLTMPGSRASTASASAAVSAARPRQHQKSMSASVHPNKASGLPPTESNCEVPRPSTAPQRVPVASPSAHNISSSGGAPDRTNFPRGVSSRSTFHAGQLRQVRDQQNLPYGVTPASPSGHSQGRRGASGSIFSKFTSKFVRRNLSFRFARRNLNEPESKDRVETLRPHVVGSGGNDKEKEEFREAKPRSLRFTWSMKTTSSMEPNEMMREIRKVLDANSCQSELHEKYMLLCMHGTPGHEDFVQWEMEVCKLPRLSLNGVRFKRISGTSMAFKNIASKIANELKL
Sequence of HIPK3 (Q9H422 whole entry): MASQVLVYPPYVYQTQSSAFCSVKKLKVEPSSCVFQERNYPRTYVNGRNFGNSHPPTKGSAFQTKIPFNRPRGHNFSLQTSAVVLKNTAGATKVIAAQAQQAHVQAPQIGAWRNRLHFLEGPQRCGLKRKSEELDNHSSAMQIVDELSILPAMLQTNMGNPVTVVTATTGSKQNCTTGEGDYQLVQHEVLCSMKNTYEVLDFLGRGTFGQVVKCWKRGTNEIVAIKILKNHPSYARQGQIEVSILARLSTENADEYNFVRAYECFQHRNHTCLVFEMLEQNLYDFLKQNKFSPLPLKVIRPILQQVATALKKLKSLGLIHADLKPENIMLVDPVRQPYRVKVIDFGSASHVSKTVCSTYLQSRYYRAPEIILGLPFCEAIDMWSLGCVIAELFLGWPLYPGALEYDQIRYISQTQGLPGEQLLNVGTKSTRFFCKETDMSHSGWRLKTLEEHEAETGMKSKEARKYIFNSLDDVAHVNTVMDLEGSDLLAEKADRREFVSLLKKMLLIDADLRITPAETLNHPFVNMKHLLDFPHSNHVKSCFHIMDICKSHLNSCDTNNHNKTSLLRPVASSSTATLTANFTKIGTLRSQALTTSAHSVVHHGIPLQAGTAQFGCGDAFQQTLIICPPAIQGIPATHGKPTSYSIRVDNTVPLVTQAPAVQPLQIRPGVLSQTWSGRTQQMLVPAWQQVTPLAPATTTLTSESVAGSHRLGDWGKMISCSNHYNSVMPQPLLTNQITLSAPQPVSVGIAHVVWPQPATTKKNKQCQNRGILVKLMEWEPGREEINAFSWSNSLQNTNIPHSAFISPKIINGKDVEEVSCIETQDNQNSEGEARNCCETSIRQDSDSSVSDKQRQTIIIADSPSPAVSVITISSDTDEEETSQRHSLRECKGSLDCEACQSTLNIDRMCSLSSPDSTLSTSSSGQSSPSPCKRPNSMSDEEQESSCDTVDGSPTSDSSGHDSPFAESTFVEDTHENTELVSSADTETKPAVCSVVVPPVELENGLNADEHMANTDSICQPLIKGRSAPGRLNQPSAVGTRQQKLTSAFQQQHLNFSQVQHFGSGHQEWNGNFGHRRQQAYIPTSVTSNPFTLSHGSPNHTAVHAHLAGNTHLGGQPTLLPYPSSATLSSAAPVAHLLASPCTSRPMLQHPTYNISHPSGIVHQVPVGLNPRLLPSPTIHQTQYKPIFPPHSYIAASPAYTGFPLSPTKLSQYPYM
Sequence of GRK2 (P25098 whole entry): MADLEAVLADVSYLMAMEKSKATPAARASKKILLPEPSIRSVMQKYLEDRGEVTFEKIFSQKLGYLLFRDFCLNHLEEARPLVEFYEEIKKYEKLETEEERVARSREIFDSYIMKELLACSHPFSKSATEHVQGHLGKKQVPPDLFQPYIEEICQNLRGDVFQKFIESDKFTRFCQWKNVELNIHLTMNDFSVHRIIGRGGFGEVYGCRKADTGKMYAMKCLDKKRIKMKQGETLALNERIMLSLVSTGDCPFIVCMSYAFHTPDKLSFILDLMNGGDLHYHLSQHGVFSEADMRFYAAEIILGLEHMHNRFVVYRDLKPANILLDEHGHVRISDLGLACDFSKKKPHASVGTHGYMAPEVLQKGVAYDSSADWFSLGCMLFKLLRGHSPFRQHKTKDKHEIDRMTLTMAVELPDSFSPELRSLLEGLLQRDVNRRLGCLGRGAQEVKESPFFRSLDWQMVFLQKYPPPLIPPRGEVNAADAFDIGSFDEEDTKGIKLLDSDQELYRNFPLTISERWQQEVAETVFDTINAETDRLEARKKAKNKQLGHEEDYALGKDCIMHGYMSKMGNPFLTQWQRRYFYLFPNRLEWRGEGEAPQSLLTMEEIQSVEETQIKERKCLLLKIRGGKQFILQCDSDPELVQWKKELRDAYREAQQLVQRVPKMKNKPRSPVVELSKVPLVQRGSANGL

With `COc1cc2c(cn1)N(C)C(=O)[C@@H](NC(=O)c1nc3n(n1)[C@H](c1ccccc1)CC3)CC2` [GNE684, (S)-N-((S)-7-methoxy-1-methyl-2-oxo-2,3,4,5-tetrahydro-1H-pyrido[3,4-b]azepin-3-yl)-5-phenyl-6,7-dihydro-5H-pyrrolo[1,2-b][1,2,4]triazole-2-carboxamide], the remaining binding at 10 µM came out at 81% at AMPK-alpha2; 93% at CDK5; 85% at CSNK2A2; 94% on EGFR(E746-A750del); 100% on EGFR(G719S); 100% on EGFR(L858R). The remaining binding at 10 µM turned out to be 94% on GRK2; 100% on HIPK3; 100% on IKK-alpha; 92% at MAP3K4; 100% on MARK2; 100% at MTOR. Also, the remaining binding at 10 µM on NDR2 came to 100%; on PHKG1 it was 77%; at PIP5K2B it was 92%; at PIP5K2C, 76%; at PRKCE, 88%; on PRKD2 it was 100%. The values for the remaining binding at 10 µM (in assay [1]; at SNARK; at SRPK3) were 75%, 100% and 100%, respectively.
